Laboratory results published in ChEMBL document CHEMBL5331103, “Discovery of novel 2-hydroxyl-4-benzyloxybenzyl aniline derivatives as potential multifunctional agents for the treatment of Parkinson's disease” (Eur J Med Chem, 2023).

Legend:
[1] = molecular target: T1, Amine oxidase [flavin-containing] A (Homo sapiens, UniProt P21397); assay: Inhibition of MAO-A (unknown origin) using kynuramine as substrate at 10 uM preincubated for 30 mins followed by substrate addition and measured after 30 mins by fluorescence based analysis relative to control; conditions: 0.5 h, time 60 min
T1 sequence (P21397 whole entry): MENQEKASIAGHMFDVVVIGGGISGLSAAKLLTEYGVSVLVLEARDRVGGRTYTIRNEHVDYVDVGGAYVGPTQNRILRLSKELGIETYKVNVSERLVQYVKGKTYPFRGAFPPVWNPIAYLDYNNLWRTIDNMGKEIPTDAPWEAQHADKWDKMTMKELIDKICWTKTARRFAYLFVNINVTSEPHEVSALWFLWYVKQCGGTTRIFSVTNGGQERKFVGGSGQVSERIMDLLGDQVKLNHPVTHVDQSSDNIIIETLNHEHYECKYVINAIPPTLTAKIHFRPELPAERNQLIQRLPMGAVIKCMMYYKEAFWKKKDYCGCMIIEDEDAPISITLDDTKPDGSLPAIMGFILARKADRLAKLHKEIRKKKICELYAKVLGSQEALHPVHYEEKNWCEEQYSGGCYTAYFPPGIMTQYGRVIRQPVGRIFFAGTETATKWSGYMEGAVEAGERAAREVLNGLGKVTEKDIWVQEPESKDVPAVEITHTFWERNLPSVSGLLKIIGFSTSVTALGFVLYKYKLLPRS

[2] = molecular target: T2, Amine oxidase [flavin-containing] B (Homo sapiens, UniProt P27338)
T2 sequence (P27338 whole entry): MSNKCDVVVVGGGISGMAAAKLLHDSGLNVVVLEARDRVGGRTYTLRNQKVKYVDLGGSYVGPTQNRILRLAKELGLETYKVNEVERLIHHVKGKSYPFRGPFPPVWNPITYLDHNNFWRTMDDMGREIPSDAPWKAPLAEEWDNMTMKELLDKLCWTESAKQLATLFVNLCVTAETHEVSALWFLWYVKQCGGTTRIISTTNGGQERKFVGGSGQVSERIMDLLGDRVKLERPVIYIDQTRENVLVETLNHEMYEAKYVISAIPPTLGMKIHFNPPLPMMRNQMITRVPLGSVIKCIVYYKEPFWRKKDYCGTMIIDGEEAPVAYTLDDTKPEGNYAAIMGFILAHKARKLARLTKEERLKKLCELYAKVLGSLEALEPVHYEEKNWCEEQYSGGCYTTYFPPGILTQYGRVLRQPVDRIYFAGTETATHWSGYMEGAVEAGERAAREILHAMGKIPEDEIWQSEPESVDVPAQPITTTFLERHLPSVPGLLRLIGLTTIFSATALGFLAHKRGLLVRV
Description: Inhibition of MAO-B (unknown origin) using kynuramine as substrate preincubated for 30 mins followed by substrate addition and measured after 30 mins by fluorescence based analysis

PC-12 [3] = assay: Neuroprotective activity against H2O2-induced cell damage in rat PC-12 cells assessed as increase in cell viability at 10 uM preincubated for 2 hrs followed by H2O2 addition and measured after 24 hrs by MTT assay (reference value: 50.3%); format: functional; conditions: time 26 hrs
PC-12 [4] = assay: Cytotoxicity against rat PC-12 cells assessed as reduction in cell viability at 10 uM incubated for 2 hrs by MTT assay; format: toxicity, cell-based; conditions: pc-12, 2 h
BV-2 [5] = assay: Cytotoxicity against mouse BV-2 cells assessed as reduction in cell viability upto 10 uM incubated for 30 mins by MTT assay; format: toxicity, cell-based; conditions: bv-2, 0.5 h
BV-2 [6] = assay: Anti-neuroinflammatory activity in mouse BV-2 cells assessed as inhibition of LPS-induced NO production at 10 uM preincubated for 30 mins followed by LPS stimulation and measured after 24 hrs by Griess reagent based assay relative to control; format: functional; conditions: time 24.5 hrs
BV-2 [7] = assay: Anti-neuroinflammatory activity in mouse BV-2 cells assessed as inhibition of LPS-induced TNF-alpha production at 10 uM preincubated for 30 mins followed by LPS stimulation and measured after 24 hrs by ELISA analysis relative to control; format: functional; conditions: time 24.5 hrs
BV-2 [8] = assay: Inhibition of LPS-induced ROS production in mouse BV-2 cells at 10 uM preincubated for 30 mins followed by LPS-stimulation and measured after 30 mins by DCFH-DA based fluorescence microplate reader analysis relative to control; format: functional; conditions: BV-2, 1 h, time 60 min

Oc1cc(OCc2ccc(F)cc2)ccc1CNc1ccccc1F
inhibition at 10 µM [1]: 38.3% | IC50 [2]: 35 nM

COc1cccc(COc2ccc(CNc3ccccc3)c(O)c2)c1
inhibition at 10 µM [1]: < 5% | IC50 [2]: 343 nM

Oc1cc(OCc2ccccc2)ccc1CNc1ccccc1
inhibition at 10 µM [1]: 14.7% | IC50 [2]: 481 nM

Cc1ccc(COc2ccc(CNc3ccccc3)c(O)c2)cc1
inhibition at 10 µM [1]: 26.4% | IC50 [2]: 366 nM

Oc1cc(OCc2ccc(Cl)c(Cl)c2)ccc1CNc1ccccc1
inhibition at 10 µM [1]: 52.5% | IC50 [2]: 49 nM

Oc1cc(OCc2ccccc2F)ccc1CNc1ccccc1
inhibition at 10 µM [1]: 8.34% | IC50 [2]: 334 nM

Oc1ccc(/C=C/c2cc(O)cc(O)c2)cc1 [RESVERATROL]
Activity (PC-12 [3]): 63.6% | Activity (PC-12 [4]): Non-Toxic | Activity (BV-2 [5]): Non-Toxic | inhibition at 10 µM (BV-2 [6]): 51.8% | inhibition at 10 µM (BV-2 [7]): 52.2% | inhibition at 10 µM (BV-2 [8]): 56.7%

Oc1cc(OCc2ccccc2Cl)ccc1CNc1ccccc1
inhibition at 10 µM [1]: 10.3% | IC50 [2]: 423 nM

CC(C)(C)c1ccc(COc2ccc(CNc3ccccc3)c(O)c2)cc1
inhibition at 10 µM [1]: < 5% | IC50 [2]: 435 nM
